Laboratory results reported in patent US10618903B2, “Heteroaryl substituted aminopyridine compounds” (BRISTOL-MYERS SQUIBB COMPANY, priority 2015, dated 2020).

Columns and labels:
[1] = test system: IL-6 levels in human whole blood stimulated with a TLR2 agonist; assay: IRAK4 Whole Blood Assay (lipoteichoic acid/TLR2-stimulated IL-6); format: cell-based; settings: Homo sapiens, lipoteichoic acid 10 μg/mL, IL-6 readout
Procedure: Human whole blood containing the anti-coagulant ACD-A was plated in 384-well plate (25 μL/well) and incubated with compounds for 60 minutes at 37° C. in a 5% CO2 incubator. The blood was stimulated with a TLR2 agonist, 10 μg/mL final concentration of lipoteichoic acid (Invivogen, San Diego, Calif.) in 25 μL RPMI (Gibco) for 5 hours in a 5% CO2 incubator. At the end of the incubation, plates were centrifuged at 2300 rpm for 5 minutes. Supernatants were harvested and analyzed for IL-6 levels by Flow Cytometry beads assay (BD Biosciences, San Jose, Calif.).

IRAK4 = IRAK4 (Homo sapiens (Human), UniProt Q9NWZ3); assay: IRAK4 Inhibition Assay; format: biochemical; settings: ATP 500 μM; IRAK4 0.6 nM
Sequence of IRAK4 (Q9NWZ3 whole entry): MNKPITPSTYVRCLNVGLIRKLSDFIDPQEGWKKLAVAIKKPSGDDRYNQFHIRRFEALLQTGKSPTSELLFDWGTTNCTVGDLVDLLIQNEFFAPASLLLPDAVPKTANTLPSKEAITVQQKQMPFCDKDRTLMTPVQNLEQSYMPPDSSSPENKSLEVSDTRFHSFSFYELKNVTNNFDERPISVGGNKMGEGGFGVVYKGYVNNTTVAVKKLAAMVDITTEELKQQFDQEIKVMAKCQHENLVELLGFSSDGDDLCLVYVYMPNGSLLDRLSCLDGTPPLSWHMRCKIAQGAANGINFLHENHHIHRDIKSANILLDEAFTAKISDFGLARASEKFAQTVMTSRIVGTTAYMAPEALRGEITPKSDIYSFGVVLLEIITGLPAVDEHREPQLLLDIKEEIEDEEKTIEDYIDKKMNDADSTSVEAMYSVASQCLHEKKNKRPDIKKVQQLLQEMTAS
Outline: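 Readout: electrophoretic (LabChip) separation of fluorescent peptide substrate from phosphorylated product after EDTA quench. Reactions ran 60 min at room temperature with 0.6 nM IRAK4, 1.5 μM peptide and 500 μM ATP; inhibition referenced to no-enzyme (100%) and vehicle (0%) controls.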

EC50 [1] | IC50 (IRAK4) | SMILES
470 nM | 6 nM | CO[C@H]1CC[C@H](Nc2cc(-c3cnn4cc(Cl)cnc34)ncc2C(=O)NC[C@@H](F)C(C)(C)O)CC1 [Example 165, 6-(6-chloropyrazolo[1,5-a]pyrimidin-3-yl)-N—((R)-2-fluoro-3-hydroxy-3-methylbutyl)-4-(((1r,4R)-4-methoxycyclohexyl)amino)nicotinamide]
660 nM | 5 nM | CCO[C@H]1CC[C@H](NC(=O)c2cnc(-c3cnn4cc(Cl)cnc34)cc2NC(C)C)CC1 [Example 166, 6-(6-chloropyrazolo[1,5-a]pyrimidin-3-yl)-N-((1r,4r)-4-ethoxycyclohexyl)-4-(isopropylamino)nicotinamide]
550 nM | 5 nM | CC(=O)N[C@H](C)CCNC(=O)c1cnc(-c2cnn3cc(Cl)cnc23)cc1NC(C)C [Example 167, (R)—N-(3-acetamidobutyl)-6-(6-chloropyrazolo[1,5-a]pyrimidin-3-yl)-4-(isopropylamino) nicotinamide]
760 nM | 16 nM | CC(C)Nc1cc(-c2cnn3cc(Cl)cnc23)ncc1C(=O)NCCCS(C)(=O)=O [Example 168, 6-(6-chloropyrazolo[1,5-a]pyrimidin-3-yl)-4-(isopropylamino)-N-(3-(methylsulfonyl)propyl)nicotinamide]
820 nM | 5 nM | CC(C)Nc1cc(-c2cnn3cc(C#N)cnc23)ncc1C(=O)NC[C@@H](F)C(C)(C)OC(F)F [Example 170, (R)-6-(6-cyanopyrazolo[1,5-a]pyrimidin-3-yl)-N-(3-(difluoromethoxy)-2-fluoro-3-methylbutyl)-4-(isopropylamino)nicotinamide]
830 nM | 6 nM | CC(C)Nc1cc(-c2cnc3cc(C#N)cnn23)ncc1C(=O)NCC(F)(F)C(C)(C)O [Example 173, 6-(7-cyanoimidazo[1,2-b]pyridazin-3-yl)-N-(2,2-difluoro-3-hydroxy-3-methylbutyl)-4-(isopropylamino)nicotinamide]
710 nM | 4 nM | COC(C)(C)[C@H]1CC[C@H](NC(=O)c2cnc(-c3cnc4cc(C#N)cnn34)cc2NC(C)C)CC1 [Example 174, 6-(7-cyanoimidazo[1,2-b]pyridazin-3-yl)-4-(isopropylamino)-N-((1r,4r)-4-(2-methoxypropan-2-yl)cyclohexyl)nicotinamide]
480 nM | 3 nM | CC(C)(O)[C@H](F)CNC(=O)c1cnc(-c2cnc3cc(Cl)cnn23)cc1N[C@H]1CC[C@H](C(C)(C)F)CC1 [Example 175, 6-(7-chloroimidazo[1,2-b]pyridazin-3-yl)-N—((R)-2-fluoro-3-hydroxy-3-methylbutyl)-4-(((1r,4R)-4-(2-fluoropropan-2-yl)cyclohexyl)amino)nicotinamide]
620 nM | 2 nM | CC(C)(O)[C@H](F)CNC(=O)c1cnc(-c2cnc3cc(C#N)cnn23)cc1NC1CC1 [Example 182, (R)-6-(7-cyanoimidazo[1,2-b]pyridazin-3-yl)-4-(cyclopropylamino)-N-(2-fluoro-3-hydroxy-3-methylbutyl)nicotinamide]
260 nM | 4 nM | CC(C)Nc1cc(-c2ccc3cc(C#N)cnn23)ncc1C(=O)NC[C@@H](F)C(C)(C)O [Example 193, (R)-6-(3-cyanopyrrolo[1,2-b]pyridazin-7-yl)-N-(2-fluoro-3-hydroxy-3-methylbutyl)-4-(isopropylamino)nicotinamide]
640 nM | 6 nM | CO[C@H]1CC[C@H](Nc2cc(-c3cnc4cc(C#N)cnn34)ncc2C(=O)NC[C@@H](F)C(C)(C)O)CC1 [Example 196, 6-(7-cyanoimidazo[1,2-b]pyridazin-3-yl)-N—((R)-2-fluoro-3-hydroxy-3-methylbutyl)-4-(((1r,4R)-4-methoxycyclohexyl)amino) nicotinamide]
430 nM | 2 nM | C[C@@H](CF)Nc1cc(-c2cnc3cc(C#N)cnn23)ncc1C(=O)NC[C@@H](F)C(C)(C)O [Example 200, 6-(7-cyanoimidazo[1,2-b]pyridazin-3-yl)-N—((R)-2-fluoro-3-hydroxy-3-methylbutyl)-4-(((S)-1-fluoropropan-2-yl)amino)nicotinamide]
750 nM | 2 nM | CC[C@@H](C)Nc1cc(-c2cnc3cc(Cl)cnn23)ncc1C(=O)NC[C@@H](F)C(C)(C)O [Example 202, 4-(((R)-sec-butyl)amino)-6-(7-chloroimidazo[1,2-b]pyridazin-3-yl)-N—((R)-2-fluoro-3-hydroxy-3-methylbutyl)nicotinamide]
890 nM | 5 nM | CC(C)Nc1cc(-c2cnc3cc(C#N)cnn23)ncc1C(=O)NCC(F)C1CC(C)OC(C)C1 (stereo not drawn) [Example 203, 6-(7-cyanoimidazo[1,2-b]pyridazin-3-yl)-N-(2-(2,6-dimethyltetrahydro-2H-pyran-4-yl)-2-fluoroethyl)-4-(isopropylamino)nicotinamide]
260 nM | 2 nM | CC(C)(O)[C@H](F)CNC(=O)c1cnc(-c2cnc3cc(C#N)cnn23)cc1N[C@H]1CC[C@H](C(C)(C)O)CC1 [Example 204, 6-(7-cyanoimidazo[1,2-b]pyridazin-3-yl)-N—((R)-2-fluoro-3-hydroxy-3-methylbutyl)-4-(((1r,4R)-4-(2-hydroxypropan-2-yl)cyclohexyl)amino)nicotinamide]
820 nM | 4 nM | CC(C)(O)[C@H](F)CNC(=O)c1cnc(-c2cnc3cc(Cl)cnn23)cc1NC1CC(F)(F)C1 [Example 206, (R)-6-(7-chioroimidazo[1,2-b]pyridazin-3-yl)-4-((3,3-difluorocyclobutyl)amino)-N-(2-fluoro-3-hydroxy-3-methylbutyl)nicotinamide]
550 nM | 6 nM | CC(C)(O)[C@H](F)CNC(=O)c1cnc(-c2cnc3cc(C#N)cnn23)cc1NC1CCC(F)C1 (stereo partly drawn) [Example 208, 6-(7-cyanoimidazo[1,2-b]pyridazin-3-yl)-N—((R)-2-fluoro-3-hydroxy-3-methylbutyl)-4-((3-fluorocyclopentyl)amino)nicotinamide]
610 nM | 4 nM | CC(C)Nc1cc(-c2cnc3cc(C(F)F)cnn23)ncc1C(=O)NC[C@H](F)C(C)(C)O [Example 209, (S)-6-(7-(difluoromethyl)imidazo[1,2-b]pyridazin-3-yl)-N-(2-fluoro-3-hydroxy-3-methylbutyl)-4-(isopropylamino)nicotinamide]
980 nM | 3 nM | CC(C)(O)[C@H](F)CNC(=O)c1cnc(-c2cnc3cc(Cl)cnn23)cc1NCCC(F)F [Example 210, (R)-6-(7-chloroimidazo[1,2-b]pyridazin-3-yl)-4-((3,3-difluoropropyl)amino)-N-(2-fluoro-3-hydroxy-3-methylbutyl)nicotinamide]
940 nM | 2 nM | CC(C)(O)[C@H](F)CNC(=O)c1cnc(-c2cnc3cc(C#N)cnn23)cc1NCCC(F)F [Example 211, (R)-6-(7-cyanoimidazo[1,2-b]pyridazin-3-yl)-4-((3,3-difluoropropyl)amino)-N-(2-fluoro-3-hydroxy-3-methylbutyl)nicotinamide]
980 nM | 3 nM | CC(C)Nc1cc(-c2cnc3cc(F)cnn23)ncc1C(=O)NC[C@H](F)C(C)(C)O [Example 212, (S)—N-(2-fluoro-3-hydroxy-3-methylbutyl)-6-(7-fluoroimidazo[1,2-b]pyridazin-3-yl)-4-(isopropylamino)nicotinamide]
890 nM | 2 nM | CC(C)Nc1cc(-c2cnc3cc(C#N)cnn23)ncc1C(=O)NCCc1cccs1 [Example 213, 6-(7-cyanoimidazo[1,2-b]pyridazin-3-yl)-4-(isopropylamino)-N-(2-(thiophen-2-yl)ethyl)nicotinamide]
480 nM | 11 nM | CC(C)Nc1cc(-c2cnc3cc(C#N)cnn23)ncc1C(=O)NCCCn1ccnc1 [Example 214, N-(3-(1H-imidazol-1-yl)propyl)-6-(7-cyanoimidazo[1,2-b]pyridazin-3-yl)-4-(isopropylamino)nicotinamide]
600 nM | 4 nM | CC(C)Nc1cc(-c2cnc3cc(C#N)cnn23)ncc1C(=O)NC1CCC(N(C)C)CC1 (stereo not drawn) [Example 215, 6-(7-cyanoimidazo[1,2-b]pyridazin-3-yl)-N-(4-(dimethylamino)cyclohexyl)-4-(isopropylamino)nicotinamide]
450 nM | 18 nM | CC(=O)N[C@H]1CC[C@H](NC(=O)c2cnc(-c3cnc4cc(Cl)cnn34)cc2NC(C)C)CC1 [Example 219, N-((1r,4r)-4-acetamidocyclohexyl)-6-(7-chloroimidazo[1,2-b]pyridazin-3-yl)-4-(isopropylamino)nicotinamide]
340 nM | 16 nM | CC(=O)N[C@H]1CC[C@H](NC(=O)c2cnc(-c3cnc4cc(C#N)cnn34)cc2NC(C)C)CC1 [Example 220, N-((1r,4r)-4-acetamidocyclohexyl)-6-(7-cyanoimidazo[1,2-b]pyridazin-3-yl)-4-(isopropylamino)nicotinamide]
570 nM | 14 nM | C[C@@H](CF)Nc1cc(-c2cnc3cc(C#N)cnn23)ncc1C(=O)NCCC(C)(C)O [Example 221, (S)-6-(7-cyanoimidazo[1,2-b]pyridazin-3-yl)-4-((1-fluoropropan-2-yl)amino)-N-(3-hydroxy-3-methylbutyl)nicotinamide]
